Data from ChEMBL document CHEMBL1133617, “Effect of C9-methyl substitution and C8-C9 conformational restriction on antifolate and antitumor activity of classical 5-substituted 2,4-diaminofuro[2,3-d]pyrimidines” (J Med Chem, 2000).

T1: Dihydrofolate reductase (Escherichia coli, UniProt P0ABQ4)
T1 sequence (P0ABQ4 whole entry): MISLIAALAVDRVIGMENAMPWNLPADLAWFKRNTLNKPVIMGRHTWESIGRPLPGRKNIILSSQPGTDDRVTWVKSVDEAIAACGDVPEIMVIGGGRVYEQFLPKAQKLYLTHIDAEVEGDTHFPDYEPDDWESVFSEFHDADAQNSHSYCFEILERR

T2: Thymidylate synthase (Lactobacillus casei, UniProt P00469)
T2 sequence (P00469 whole entry): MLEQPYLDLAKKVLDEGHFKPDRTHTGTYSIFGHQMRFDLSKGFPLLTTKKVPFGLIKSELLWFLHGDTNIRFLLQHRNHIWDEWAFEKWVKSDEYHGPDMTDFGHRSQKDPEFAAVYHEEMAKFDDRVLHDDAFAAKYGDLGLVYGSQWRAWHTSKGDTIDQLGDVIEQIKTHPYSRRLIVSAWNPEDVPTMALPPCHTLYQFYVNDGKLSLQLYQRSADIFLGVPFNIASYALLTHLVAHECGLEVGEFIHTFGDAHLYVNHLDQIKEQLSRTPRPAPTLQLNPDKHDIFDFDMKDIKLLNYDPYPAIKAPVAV

T3: Dihydrofolate reductase (Homo sapiens, UniProt P00374)
T3 sequence (P00374 whole entry): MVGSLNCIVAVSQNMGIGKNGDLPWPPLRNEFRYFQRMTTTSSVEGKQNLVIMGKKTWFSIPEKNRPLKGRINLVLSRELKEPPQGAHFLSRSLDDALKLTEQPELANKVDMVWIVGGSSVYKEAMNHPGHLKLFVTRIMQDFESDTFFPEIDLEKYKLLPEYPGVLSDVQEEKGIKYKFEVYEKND

T4: Bifunctional dihydrofolate reductase-thymidylate synthase (Toxoplasma gondii, UniProt Q07422)
T4 sequence (Q07422 whole entry): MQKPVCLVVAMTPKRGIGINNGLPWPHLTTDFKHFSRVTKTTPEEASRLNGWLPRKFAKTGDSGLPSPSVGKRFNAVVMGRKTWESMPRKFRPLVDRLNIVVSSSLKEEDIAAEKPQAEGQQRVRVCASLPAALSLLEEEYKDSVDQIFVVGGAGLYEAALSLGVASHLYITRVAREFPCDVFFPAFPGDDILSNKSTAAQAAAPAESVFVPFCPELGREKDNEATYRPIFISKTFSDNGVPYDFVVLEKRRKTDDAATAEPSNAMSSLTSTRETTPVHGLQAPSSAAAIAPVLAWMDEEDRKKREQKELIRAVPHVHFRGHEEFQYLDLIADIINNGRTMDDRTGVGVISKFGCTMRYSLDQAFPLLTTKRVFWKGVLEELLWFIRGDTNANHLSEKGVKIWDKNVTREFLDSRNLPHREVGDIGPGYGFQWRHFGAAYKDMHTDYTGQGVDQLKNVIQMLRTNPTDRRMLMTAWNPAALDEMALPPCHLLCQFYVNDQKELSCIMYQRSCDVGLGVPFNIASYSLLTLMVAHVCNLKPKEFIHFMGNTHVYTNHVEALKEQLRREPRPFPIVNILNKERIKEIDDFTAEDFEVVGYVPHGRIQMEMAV


What was measured:
[1] = tested on: A253 cell line; assay: Growth inhibition of human squamous cell carcinoma A253 cells during continuous Exposure ([…]); assay type: functional, cell-based
[2] = target: T1, Dihydrofolate reductase
Description: Inhibitory concentration against Escherichia coli Dihydrofolate reductase

[3] = ratio of vmax to Km
[4] = target: T2, Thymidylate synthase; assay: Inhibitory concentration against Lactobacillus casei Thymidylate synthase (TS).; parameters: species or system Lacticaseibacillus casei
[5] = target: T3, Dihydrofolate reductase
Description: Inhibitory concentration against recombinant human (rh) Dihydrofolate reductase

[6] = target: T4, Bifunctional dihydrofolate reductase-thymidylate synthase; assay: Inhibitory concentration against Toxoplasma gondii Dihydrofolate reductase
[7] = target: Thymidylate synthase (Escherichia coli, UniProt C3SWJ7); assay: Inhibitory concentration against Escherichia coli Thymidylate synthase (TS).
Thymidylate synthase (Escherichia coli, UniProt C3SWJ7), sequence (C3SWJ7 whole entry): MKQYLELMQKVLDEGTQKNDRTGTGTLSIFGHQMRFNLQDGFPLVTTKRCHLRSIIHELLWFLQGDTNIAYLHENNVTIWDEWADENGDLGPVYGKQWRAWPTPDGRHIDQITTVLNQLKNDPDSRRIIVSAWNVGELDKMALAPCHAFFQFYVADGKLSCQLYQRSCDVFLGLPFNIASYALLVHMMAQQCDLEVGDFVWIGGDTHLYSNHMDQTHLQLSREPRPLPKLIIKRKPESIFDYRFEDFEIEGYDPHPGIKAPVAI

[8] = tested on: CCRF-CEM; assay: Growth inhibition of CCRF-CEM human leukemia cells.; assay type: functional, cell-based
[9] = tested on: FaDu; assay: Growth inhibition of human squamous cell carcinoma FaDu cells during continuous Exposure ([…]); assay type: functional, cell-based
[10] = target: Thymidylate synthase (Rattus norvegicus, UniProt P45352); assay: Inhibitory concentration against rat Thymidylate synthase (TS)
Thymidylate synthase (Rattus norvegicus, UniProt P45352), sequence (P45352 whole entry): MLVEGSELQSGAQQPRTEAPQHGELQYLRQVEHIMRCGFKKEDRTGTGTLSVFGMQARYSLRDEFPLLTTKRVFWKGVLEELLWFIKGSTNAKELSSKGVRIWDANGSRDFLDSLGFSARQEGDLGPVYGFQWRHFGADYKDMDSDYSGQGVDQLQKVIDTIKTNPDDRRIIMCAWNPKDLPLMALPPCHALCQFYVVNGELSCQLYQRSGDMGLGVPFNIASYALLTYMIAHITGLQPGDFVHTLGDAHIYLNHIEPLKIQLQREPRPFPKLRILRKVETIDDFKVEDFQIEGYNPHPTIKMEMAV

[11] = target: Dihydrofolate reductase (Lactobacillus casei, UniProt P00381); assay: Inhibitory concentration against Lactobacillus casei Dihydrofolate reductase; parameters: species or system Lacticaseibacillus casei
Dihydrofolate reductase (Lactobacillus casei, UniProt P00381), sequence (P00381 whole entry): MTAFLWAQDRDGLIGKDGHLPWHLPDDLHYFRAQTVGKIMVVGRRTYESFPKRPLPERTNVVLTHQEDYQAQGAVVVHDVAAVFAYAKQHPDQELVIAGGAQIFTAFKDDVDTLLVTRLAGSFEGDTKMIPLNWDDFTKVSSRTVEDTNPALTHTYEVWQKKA

[12] = target: Thymidylate synthase (Homo sapiens, UniProt P04818); assay: Inhibitory concentration against recombinant human (rh) Thymidylate synthase (TS)
Thymidylate synthase (Homo sapiens, UniProt P04818), sequence (P04818 whole entry): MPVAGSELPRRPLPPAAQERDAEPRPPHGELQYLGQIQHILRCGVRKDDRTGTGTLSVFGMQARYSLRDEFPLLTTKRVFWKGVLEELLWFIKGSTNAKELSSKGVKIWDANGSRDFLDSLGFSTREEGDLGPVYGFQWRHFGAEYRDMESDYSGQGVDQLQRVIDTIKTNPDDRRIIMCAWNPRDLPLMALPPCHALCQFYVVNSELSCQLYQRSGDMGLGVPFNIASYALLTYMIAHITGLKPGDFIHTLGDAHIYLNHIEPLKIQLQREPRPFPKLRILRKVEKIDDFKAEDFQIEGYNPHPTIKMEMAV

[13] = Growth inhibition of MTX-resistant R1 sublines.; assay type: functional, Homo sapiens
[14] = Growth inhibition of MTX-resistant R30dm sublines.; assay type: functional, Homo sapiens
[15] = tested on: FaDu; assay: protection of FaDu cells from the growth inhibitory effects of the compound.; assay type: functional, Homo sapiens; parameters: scale not given: the % may be the effect or the level left
[16] = tested on: FaDu; assay: protection of FaDu cells from the growth inhibitory effects by 40 uM of thymidine (TdR).; assay type: functional, Homo sapiens; parameters: scale not given: the % may be the effect or the level left
[17] = tested on: FaDu; assay: protection of FaDu cells from the growth inhibitory effects by 50 uM of hypoxanthine (HX); assay type: functional, Homo sapiens; parameters: scale not given: the % may be the effect or the level left
[18] = tested on: FaDu; assay: protection of FaDu cells from the growth inhibitory effects by combination of 50 uM of thymidine (TdR).; assay type: functional, Homo sapiens; parameters: scale not given: the % may be the effect or the level left
[19] = Growth inhibition of MTX-resistant R2(Bos) sublines.; assay type: functional, Homo sapiens
[20] = tested on: FaDu; assay: protection of FaDu cells from the growth inhibitory effects by the combination of 50 uM of hypoxanthine (HX) and 40 uM of thymidine (TdR).; assay type: functional, Homo sapiens; parameters: scale not given: the % may be the effect or the level left
[21] = target: T3, Dihydrofolate reductase; assay: Inhibitory activity against Dihydrofolate reductase
[22] = substrate: CC(Cc1coc2nc(N)nc(N)c12)c1ccc(C(=O)N[C@@H](CCC(=O)O)C(=O)O)cc1; assay: (§1) Activity as substrate for recombinant human Folyl-polyglutamate synthase (rhFPGS) relative to aminopterin.
[23] = substrate: Nc1nc(N)c2nc(CNc3ccc(C(=O)N[C@@H](CCC(=O)O)C(=O)O)cc3)cnc2n1; assay: as §1
[24] = substrate: C/C(=C/c1coc2nc(N)nc(N)c12)c1ccc(C(=O)N[C@@H](CCC(=O)O)C(=O)O)cc1.C/C(=C\c1coc2nc(N)nc(N)c12)c1ccc(C(=O)N[C@@H](CCC(=O)O)C(=O)O)cc1; assay: as §1
[25] = substrate: C/C(=C\c1coc2nc(N)nc(N)c12)c1ccc(C(=O)N[C@@H](CCC(=O)O)C(=O)O)cc1; assay: as §1
[26] = substrate: Nc1nc(N)c2c(CCc3ccc(C(=O)N[C@@H](CCC(=O)O)C(=O)O)cc3)coc2n1; assay: as §1
[27] = substrate: CC(Cc1coc2nc(N)nc(N)c12)c1ccc(C(=O)N[C@@H](CCC(=O)O)C(=O)O)cc1; assay: (§2) Activity as substrate for recombinant human Folyl-polyglutamate synthase (rhFPGS)
[28] = substrate: Nc1nc(N)c2nc(CNc3ccc(C(=O)N[C@@H](CCC(=O)O)C(=O)O)cc3)cnc2n1; assay: as §2
[29] = substrate: C/C(=C/c1coc2nc(N)nc(N)c12)c1ccc(C(=O)N[C@@H](CCC(=O)O)C(=O)O)cc1.C/C(=C\c1coc2nc(N)nc(N)c12)c1ccc(C(=O)N[C@@H](CCC(=O)O)C(=O)O)cc1; assay: as §2
[30] = substrate: C/C(=C\c1coc2nc(N)nc(N)c12)c1ccc(C(=O)N[C@@H](CCC(=O)O)C(=O)O)cc1; assay: as §2

| Molecule | EC50 [1] [µM] | IC50 [2] [µM] | Ratio [3] | IC50 [4] [µM] | IC50 [6] [µM] | IC50 [7] [µM] | EC50 [8] [µM] | EC50 [9] [µM] | IC50 [10] [µM] | IC50 [11] [µM] | IC50 [12] [µM] | EC50 [13] [µM] | EC50 [14] [µM] | EC50 [19] [µM] | further results |
| --- | --- | --- | --- | --- | --- | --- | --- | --- | --- | --- | --- | --- | --- | --- | --- |
| C/C(=C\c1coc2nc(N)nc(N)c12)c1ccc(C(=O)N[C@@H](CCC(=O)O)C(=O)O)cc1 | > 10 | 11 | 0.15 | > 360 | 110 | > 360 | 34 | > 10 | > 360 | 84 | > 360 |  |  |  | IC50 [5]: 42 µM |
| CN(Cc1coc2nc(N)nc(N)c12)c1ccc(C(=O)N[C@@H](CCC(=O)O)C(=O)O)cc1 [FURO[2,3D]PYRIMIDINE ANTIFOLATE] |  |  |  | > 200 | 19.8 |  |  |  |  | 0.22 | > 200 | 0.807 | 1.03 |  |  |
| Nc1nc(N)c2nc(CNc3ccc(C(=O)N[C@@H](CCC(=O)O)C(=O)O)cc3)cnc2n1 |  |  | 0.23 |  |  |  |  |  |  |  |  |  |  |  |  |
| Nc1nc(N)c2c(CNc3ccc(C(=O)N[C@@H](CCC(=O)O)C(=O)O)cc3)coc2n1 |  |  |  |  | 0.7 |  |  |  |  |  | > 200 | 1.52 | 0.663 |  |  |
| CN(Cc1cnc2nc(N)nc(N)c2n1)c1ccc(C(=O)N[C@@H](CCC(=O)O)C(=O)O)cc1 [METHOTREXATE] |  |  |  |  |  |  |  | 0.0113 |  |  |  | 0.675 |  | 1.6 | Control [15]: 5.75%; Control [16]: 9.25%; Control [17]: 11.25%; Control [18]: 102% |
| CC(Cc1coc2nc(N)nc(N)c12)c1ccc(C(=O)N[C@@H](CCC(=O)O)C(=O)O)cc1 (some centres undefined) | 0.0285 | 1.1 |  | > 360 | 2.1 | 100 | 0.0292 | 0.0175 | > 360 | 2.1 | > 360 | 0.685 | 0.22 | 0.43 | Control [15]: 5.75%; Control [16]: 8%; Control [17]: 3.75%; Control [20]: 105.25% |
| Nc1nc(N)c2c(CCc3ccc(C(=O)N[C@@H](CCC(=O)O)C(=O)O)cc3)coc2n1 |  |  | 0.07 |  |  |  |  |  |  |  |  |  | 0.425 |  |  |
| C/C(=C/c1coc2nc(N)nc(N)c12)c1ccc(C(=O)N[C@@H](CCC(=O)O)C(=O)O)cc1.C/C(=C\c1coc2nc(N)nc(N)c12)c1ccc(C(=O)N[C@@H](CCC(=O)O)C(=O)O)cc1 (mixture of isomers) | 0.7 | 1.1 | 0.05 | > 360 | 4.4 | > 360 | 1.18 | 1.4 | > 360 | 4.4 | > 360 | 32 | 6.4 | 17 | IC50 [5]: 2.2 µM |
| Nc1nc(N)c2c(CNCc3ccc(C(=O)N[C@@H](CCC(=O)O)C(=O)O)cc3)coc2n1 |  |  |  |  |  |  |  |  |  |  |  |  |  |  | IC50 [21]: 10 µM |
| Folylpolyglutamate synthase, mitochondrial (Homo sapiens), Q05932 (protein) MSRARSHLRAALFLAAASARGITTQVAARRGLSAWPVPQEPSMEYQDAVRMLNTLQTNAGYLEQVKRQRGDPQTQLEAMELYLARSGLQVEDLDRLNIIHVTGTKGKGSTCAFTECILRSYGLKTGFFSSPHLVQVRERIRINGQPISPELFTKYFWRLYHRLEETKDGSCVSMPPYFRFLTLMAFHVFLQEKVDLAVVEVGIGGAYDCTNIIRKPVVCGVSSLGIDHTSLLGDTVEKIAWQKGGIFKQGVPAFTVLQPEGPLAVLRDRAQQISCPLYLCPMLEALEEGGPPLTLGLEGEHQRSNAALALQLAHCWLQRQDRHGAGEPKASRPGLLWQLPLAPVFQPTSHMRLGLRNTEWPGRTQVLRRGPLTWYLDGAHTASSAQACVRWFRQALQGRERPSGGPEVRVLLFNATGDRDPAALLKLLQPCQFDYAVFCPNLTEVSSTGNADQQNFTVTLDQVLLRCLEHQQHWNHLDEEQASPDLWSAPSPEPGGSASLLLAPHPPHTCSASSLVFSCISHALQWISQGRDPIFQPPSPPKGLLTHPVAHSGASILREAAAIHVLVTGSLHLVGGVLKLLEPALSQ |  |  |  |  |  |  |  |  |  |  |  |  |  |  | Vmax [22]: 0.52; Vmax [23]: 1; Vmax [24]: 0.56; Vmax [25]: 0.76; Vmax [26]: 0.065; Km [27]: 1.2 µM; Km [28]: 4.5 µM; Km [29]: 10.3 µM; Km [30]: 5.3 µM |
